Patent US20220062273A1, “CONJUGATES OF PATTERN RECOGNITION RECEPTOR AGONISTS” (Ascendis Pharma Oncology Division A/S, priority 2019, published 2022)

Experiments:
Assay type in all cases: in vivo, BALB/C mice
[1] = system: CD8+ T cells of CD3+ T cells; assay: Flow cytometric profiling of tumor draining lymph nodes; settings: tumor draining lymph node, 7 days after randomization
Description: (§1) Hydrogels were administered as suspension in PTP buffer. Some cohorts were further treated with 20 μg human IL-2 (Peprotech, Rocky Hill, N.J.), intraperitoneally (I.P.), twice a day for 5 days. Mice were sacrificed 7 days after randomization (DO). Following sacrifice, tumor draining lymph nodes were isolated from both flanks and were dissociated mechanically to generate a single cell suspension at a cell concentration of 1×10^6 cells per sample. Cell suspensions were centrifuged at 300 g for 5 minutes. Supernatants were discarded and cells were resuspended in FACS buffer with 1 μg/ml Fc-Block and incubated at 4° C. for 10 minutes in the dark. Surface marker antibody mixtures (antibody concentration: 10 μg/mL) in FACS buffer were added to each sample and samples were incubated in the dark at 4° C. for 30 minutes. Cells were centrifuged at 300 g for 5 minutes and supernatants were discarded. Cells were washed and then resuspended with FACS buffer before cytometer collection.
(§2) After collection, FACS data was analyzed using FlowJo Version 10.6.1. Compensation was digitally adjusted using single antibody-stained beads. Samples with less than 90% viability, as determined by LiveDead cell staining, were excluded from the analysis. Cells were defined using the following gating strategy: • 1) Ly-6C^+ antigen presenting cells: FSC-H/FSC-A Singlets/LiveDead^−/CD45^+/CD3^−/CD335^−/Ly-6C^+ • 2) Ly-6C^+ MHCII^+ antigen presenting cells: FSC-H/FSC-A Singlets/LiveDead^−/CD45^+/CD3^−/CD335^−/Ly-6C^+/IA/IE (MHCII)^+ • 3) CD8^+ T cells: FSC-H/FSC-A Singlets/LiveDead^−/CD45^+/CD3^+/CD8 single positive 4) Ly-6C^+ CD8^+ T cells: FSC-H/FSC-A Singlets/LiveDead^−/CD45^+/CD3^+/CD8 single positive/Ly-6C^+

[2] = system: Ly-6C+ T cells of CD8+ T cells; assay: as above; settings: tumor draining lymph node, 7 days after randomization
Description: as §1, §2

[3] = system: peripheral blood mononuclear cells (PBMC); assay: PBMC gene expression (qPCR), 6 hours post-treatment
Description: Hydrogels were administered as suspensions in PTP buffer. […] Tumors were excised, weighed and snap frozen. […] For PBMC isolations, approximately 600 μl of whole blood was collected via cardiac puncture. The collected whole blood from each individual mouse was diluted with a 1:1 ratio of pre-warmed PBS supplemented with 2% Fetal Bovine Serum (FBS). Then an equal volume of Histopaque-1083 was added to a new sterile 15 mL conical tube, where the diluted whole blood was layered over the Histopaque-1083. The mixture was then centrifuged at 400 g for 30 minutes. The top plasma layer was discarded, and the white translucent interlayer (mononuclear cells) was carefully transferred to a new sterile centrifuge tube. The mononuclear cells were then washed with PBS supplemented with 2% FBS and then were spun down at 250 g for 10 minutes. […] RNA concentrations were measured using a NanoDrop (ThermoFisher) and then adjusted to […] with RNase-free water. RNA quality was assessed using a NanoDrop (ThermoFisher). […] 200 ng of cDNA was used for quantitative PCR using the RT^2 SYBR Green ROX qPCR Master mix (2X) kit (QIAGEN) following manufacturer's recommendations. […] For each gene, 3 technical replicates were analyzed per biological replicate. Undetermined technical replicate CT values were recorded as zero ΔCT values. 4-5 biological replicates were assessed in total.

CCOCc1nc2c(N)nc3ccccc3c2n1CC(C)(C)O [Compound 4, Resiquimod]
Frequency of CD8+ T cells of CD3+ T cells, Mean ([1]; injected right flank): 29.23%
Frequency of CD8+ T cells of CD3+ T cells, Mean ([1]; uninjected left flank): 29%
Frequency of Ly-6C+ T cells of CD8+ T cells, Mean ([2]; injected right flank): 53.7%
Frequency of Ly-6C+ T cells of CD8+ T cells, Mean ([2]; uninjected left flank): 48%
Il1a Mean (2^ΔΔCT) [3]: 0.41
